Values of other authors as cited in patent US20110092601A1, “LYSINE-SPECIFIC DEMETHYLASE INHIBITORS” (THE JOHNS HOPKINS UNIVERSITY, priority 2007, published 2011).

System: P19 embryonal carcinoma cells
Settings: P19 embryonal carcinoma cells treated with tranylcypromine

N[C@@H]1C[C@H]1c1ccccc1 [tranylcypromine, (1R,2S)-2-phenylcyclopropan-1-amine]
Effect on transcription of the Egr1 and Oct4 genes: transcriptional de-repression of the Egr1 and Oct4 genes
